Measurements reported in PubChem BioAssay AID248 (DTP/NCI, 2004).
“And” between values parts separate entries of the source, which are not always exact repeats. Equal entries are not always repeated. Inconclusive results and toxic doses are left out. Cut-off read from the data, not from the text of the source: active = T/C of 150% or more; inactive = T/C below 125%.

System: L1210 leukemia ip in BDF1 mice, survival T/C
Experiment: NCI In Vivo Anticancer Drug Screen. Data for tumor model L1210 Leukemia (intraperitoneal) in B6D2F1 (BDF1) mice
Details: endpoint: mean survival time, higher = longer survival
How it was run: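 Survival endpoint. Drug-treated group vs vehicle group, expressed as T divided by C. Tumor passaged by transplantation.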

[1] = dose: 100.0 mg/kg/injection, schedule: Q01DX001 (ip), vehicle: saline
[2] = dose: 200.0 mg/kg/injection, schedule: Q01DX001 (ip), vehicle: saline
[3] = dose: 50.0 mg/kg/injection, schedule: Q01DX009 (ip), vehicle: saline with Tween-80
[4] = dose: 100.0 mg/kg/injection, schedule: Q01DX009 (ip), vehicle: saline with Tween-80
[5] = dose: 200.0 mg/kg/injection, schedule: Q01DX009 (ip), vehicle: saline with Tween-80
[6] = dose: 100.0 mg/kg/injection, schedule: Q01DX009 (ip), vehicle: Klucel (hydroxypropylcellulose) (HPC)
[7] = dose: 100.0 mg/kg/injection, schedule: Q04DX003 (ip), vehicle: Klucel (hydroxypropylcellulose) (HPC)
[8] = dose: 200.0 mg/kg/injection, schedule: Q01DX009 (ip), vehicle: Klucel (hydroxypropylcellulose) (HPC)
[9] = dose: 200.0 mg/kg/injection, schedule: Q04DX003 (ip), vehicle: Klucel (hydroxypropylcellulose) (HPC)
[10] = dose: 400.0 mg/kg/injection, schedule: Q01DX009 (ip), vehicle: Klucel (hydroxypropylcellulose) (HPC)
[11] = dose: 400.0 mg/kg/injection, schedule: Q04DX003 (ip), vehicle: Klucel (hydroxypropylcellulose) (HPC)
[12] = dose: 100.0 mg/kg/injection, schedule: Q04DX003 (ip), vehicle: saline with Tween-80
[13] = dose: 100.0 mg/kg/injection, schedule: Q01DX001 (ip), vehicle: carboxymethylcellulose (CMC)
[14] = dose: 200.0 mg/kg/injection, schedule: Q01DX001 (ip), vehicle: carboxymethylcellulose (CMC)
[15] = dose: 400.0 mg/kg/injection, schedule: Q01DX001 (ip), vehicle: carboxymethylcellulose (CMC)
[16] = dose: 100.0 mg/kg/injection, schedule: Q04DX003 (ip), vehicle: saline
[17] = dose: 100.0 mg/kg/injection, schedule: Q01DX001 (ip), vehicle: saline with Tween-80
[18] = dose: 100.0 mg/kg/injection, schedule: Q04DX002 (ip), vehicle: saline with Tween-80
[19] = dose: 200.0 mg/kg/injection, schedule: Q01DX001 (ip), vehicle: saline with Tween-80
[20] = dose: 200.0 mg/kg/injection, schedule: Q04DX002 (ip), vehicle: saline with Tween-80
[21] = dose: 200.0 mg/kg/injection, schedule: Q04DX003 (ip), vehicle: saline with Tween-80
[22] = dose: 400.0 mg/kg/injection, schedule: Q01DX001 (ip), vehicle: saline with Tween-80
[23] = dose: 400.0 mg/kg/injection, schedule: Q01DX009 (ip), vehicle: saline with Tween-80
[24] = dose: 400.0 mg/kg/injection, schedule: Q04DX002 (ip), vehicle: saline with Tween-80
[25] = dose: 400.0 mg/kg/injection, schedule: Q04DX003 (ip), vehicle: saline with Tween-80

Measured: T/C

CC1COCC(C)N1CC(=O)NCCCN1CCN(CCCNC(=O)CN2C(C)COCC2C)CC1 (stereo not given)
inactive: dose: 44.0 mg/kg/injection, schedule: Q01DX001 (ip), vehicle: saline 98 % of control and 103 % of control | dose: 66.0 mg/kg/injection, schedule: Q01DX001 (ip), vehicle: saline 104 % of control and 108 % of control | [1] 104 % of control and 105 % of control | dose: 150.0 mg/kg/injection, schedule: Q01DX001 (ip), vehicle: saline 110 % of control and 116 % of control | [2] 113 % of control

Cc1ccc(CCCCCCCCCCCC(=O)O)cc1
inactive: [3] 93 % of control | [4] 97 % of control | [5] 93 % of control

Cc1cccc(C)c1NC(=O)Nc1ccc(Cl)cc1
inactive: [6] 97 % of control | [7] 97 % of control | [8] 96 % of control | [9] 100 % of control | [10] 91 % of control | [11] 95 % of control

CCN(CC)CCCOC(=O)N(Cc1ccc(Cl)cc1)C1CC1
inactive: dose: 25.0 mg/kg/injection, schedule: Q01DX009 (ip), vehicle: saline with Tween-80 100 % of control | [3] 93 % of control | [12] 102 % of control

O=C(O)c1c(O)cc(=O)oc1-c1ccc(Cl)cc1
inactive: [13] 87 % of control | [14] 92 % of control | [15] 100 % of control

CN(C)Cc1c[nH]c2nccnc12
inactive: dose: 25.0 mg/kg/injection, schedule: Q01DX009 (ip), vehicle: saline 102 % of control | dose: 25.0 mg/kg/injection, schedule: Q04DX003 (ip), vehicle: saline 100 % of control | dose: 50.0 mg/kg/injection, schedule: Q01DX009 (ip), vehicle: saline 100 % of control | dose: 50.0 mg/kg/injection, schedule: Q04DX003 (ip), vehicle: saline 105 % of control | dose: 100.0 mg/kg/injection, schedule: Q01DX009 (ip), vehicle: saline 99 % of control and 102 % of control | [16] 100 % of control and 104 % of control | dose: 200.0 mg/kg/injection, schedule: Q01DX009 (ip), vehicle: saline 99 % of control

CC(C)(C)CC(C)(C)N(CSc1ccc(Br)cc1)CSc1ccc(Br)cc1
inactive: [1] 89 % of control | [2] 90 % of control | dose: 400.0 mg/kg/injection, schedule: Q01DX001 (ip), vehicle: saline 93 % of control

CN(CCO)Cc1ccc2ccccc2c1
inactive: dose: 150.0 mg/kg/injection, schedule: Q01DX015 (ip), vehicle: saline 92 % of control

O=C(NC(=S)Nc1ccc(Br)cc1)c1ccc(Cl)cc1Cl
inactive: [17] 92 % of control | [4] 97 % of control and 102 % of control | [18] 95 % of control and 90 % of control | [12] 95 % of control | [19] 90 % of control | [5] 97 % of control and 88 % of control | [20] 93 % of control and 101 % of control | [21] 98 % of control | [22] 97 % of control | [23] 97 % of control and 90 % of control | [24] 90 % of control and 92 % of control | [25] 93 % of control

CCOC(=O)c1ccc(OC2CCCCO2)c(OC2CCCCO2)c1 (stereo not given)
inactive: [12] 98 % of control | [21] 98 % of control | [25] 98 % of control

O=C(COc1ccc(Cl)cc1Cl)Nc1cccnc1
inactive: dose: 100.0 mg/kg/injection, schedule: Q01DX001 (ip), vehicle: Klucel (hydroxypropylcellulose) (HPC) 93 % of control | [12] 94 % of control | dose: 200.0 mg/kg/injection, schedule: Q01DX001 (ip), vehicle: Klucel (hydroxypropylcellulose) (HPC) 89 % of control | [21] 94 % of control | dose: 400.0 mg/kg/injection, schedule: Q01DX001 (ip), vehicle: Klucel (hydroxypropylcellulose) (HPC) 96 % of control

Cc1ccc(Cl)c(C2c3ccccc3Cc3ccc4ccccc4c32)c1 (stereo not given)
inactive: dose: 50.0 mg/kg/injection, schedule: Q01DX001 (ip), vehicle: carboxymethylcellulose (CMC) 101 % of control | [13] 101 % of control | [14] 95 % of control | [15] 98 % of control

COc1ccc(O)c(/C=C\C=O)c1
inactive: [13] 100 % of control | [14] 100 % of control | [15] 106 % of control

COC(=O)c1ccc(N(C)CC(=O)CNc2nc(N)nc(SCc3ccccc3)c2[N+](=O)[O-])cc1
inactive: [17] 88 % of control | [19] 89 % of control | [22] 88 % of control

CC(C)=C1C2C=CC1C(CO)C2CO (stereo not given)
inactive: [6] 106 % of control | [7] 105 % of control | [8] 91 % of control | [9] 114 % of control | [10] 102 % of control | [11] 102 % of control

O=C(NO)c1cc(Cl)c(C(=O)NO)cc1Cl
inactive: dose: 100.0 mg/kg/injection, schedule: Q01DX009 (ip), vehicle: other 93 % of control | [16] 102 % of control | dose: 200.0 mg/kg/injection, schedule: Q01DX009 (ip), vehicle: other 95 % of control | dose: 200.0 mg/kg/injection, schedule: Q04DX003 (ip), vehicle: saline 102 % of control | dose: 400.0 mg/kg/injection, schedule: Q04DX003 (ip), vehicle: saline 97 % of control

CC1(C)OC2C3COC(O3)C(O)C2O1 (stereo not given)
inactive: [18] 99 % of control | [20] 99 % of control | [24] 96 % of control

CC(=O)OCC(C)CCC(=O)C(C)C1C(=O)CC2C3CC=C4CC(OC(C)=O)CCC4(C)C3CCC21C (stereo not given)
inactive: [4] 96 % of control | [5] 97 % of control | [23] 96 % of control

CCCCCCOc1ccc(C(=N)N(CCCC)CCCC)c2ccccc12
inactive: dose: 5.0 mg/kg/injection, schedule: Q01DX001 (ip), vehicle: saline 97 % of control | dose: 10.0 mg/kg/injection, schedule: Q01DX001 (ip), vehicle: saline 97 % of control | dose: 20.0 mg/kg/injection, schedule: Q01DX001 (ip), vehicle: saline 89 % of control

NC(N)=Nc1ccc(C(=O)Oc2ccc([N+](=O)[O-])cc2CN2CCCCC2)cc1
inactive: dose: 0.5 mg/kg/injection, schedule: Q04DX003 (ip), vehicle: water 102 % of control | dose: 1.0 mg/kg/injection, schedule: Q04DX003 (ip), vehicle: water 110 % of control | dose: 2.0 mg/kg/injection, schedule: Q04DX003 (ip), vehicle: water 96 % of control | dose: 3.12 mg/kg/injection, schedule: Q01DX009 (ip), vehicle: water 93 % of control | dose: 3.12 mg/kg/injection, schedule: Q04DX003 (ip), vehicle: water 105 % of control | dose: 4.0 mg/kg/injection, schedule: Q04DX003 (ip), vehicle: water 102 % of control | dose: 6.25 mg/kg/injection, schedule: Q01DX009 (ip), vehicle: water 96 % of control | dose: 12.5 mg/kg/injection, schedule: Q01DX009 (ip), vehicle: water 101 % of control | dose: 12.5 mg/kg/injection, schedule: Q04DX003 (ip), vehicle: water 108 % of control
